According to the supplement of paper PMC13380429:

Key:
[1] = system: A549-ACE2 infected with SARS-CoV-2; experiment: morphology score (similarity to uninfected cells); higher = more like uninfected cells; settings: 24 h
A549-ACE2 [2] = experiment: phospholipidosis EC50; higher = less potent phospholipidosis inducer
Calu-3 [3] = experiment: drug sensitivity score (DSS) for viability; higher = more toxic; extreme values may be limits of the assay; settings: 72 h
Vero E6 [4] = experiment: as above; settings: 72 h
HepG2 [5] = experiment: as above; settings: 72 h
Caco-2 [6] = experiment: as above; settings: 72 h
U2OS [7] = experiment: as above; settings: 72 h
[8] = system: A549-ACE2 infected with SARS-CoV-2; experiment: SARS-CoV-2 infection rate relative to DMSO; higher = more infection; settings: 24 h
[9] = system: A549-ACE2 infected with SARS-CoV-2; experiment: cell count relative to DMSO; higher = less toxic; settings: 24 h
Calu-3 [10] = experiment: cell viability relative to DMSO; higher = less toxic; settings: 72 h
Vero E6 [11] = experiment: as above; settings: 72 h
HepG2 [12] = experiment: as above; settings: 72 h
Caco-2 [13] = experiment: as above; settings: 72 h
U2OS [14] = experiment: as above; settings: 72 h
Calu-3 [15] = experiment: relative viability EC50 (midpoint between 100% and the lowest measured viability); higher = less toxic; settings: 72 h
HepG2 [16] = experiment: as above; settings: 72 h
A549-ACE2 [17] = experiment: drug-induced phospholipidosis relative to tamoxifen; higher = more phospholipidosis
Vero E6 [18] = experiment: relative viability EC50 (midpoint between 100% and the lowest measured viability); higher = less toxic; settings: 72 h
Caco-2 [19] = experiment: as above; settings: 72 h
U2OS [20] = experiment: as above; settings: 72 h

COc1cc(C(=O)NC2CCN(C)CC2)c(F)cc1Nc1ncc2c(n1)N(C1CCCC1)CC(F)(F)C(=O)N2C [TAK-960]
Settings	morphology score, 0.1 µM	morphology score, 0.3 µM	morphology score, 1 µM	morphology score, 3 µM	phospholipidosis EC50, 24 h [µM]
A549-ACE2 [2]	–	–	–	–	3.2
[1]	-0.06	-0.01	0.15	0.58	–

Settings	drug sensitivity score
Caco-2 [6]	10.9
Calu-3 [3]	4.3
HepG2 [5]	21.8
U2OS [7]	12.5
Vero E6 [4]	12.5

C1CCC(C(CC2CCCCN2)C2CCCCC2)CC1 (stereo not drawn) [perhexiline]
Settings	SARS-CoV-2 infection rate [%]	cell count [%]	cell viability [%]	morphology score	phospholipidosis EC50 [µM]
A549-ACE2 [2], 24 h	–	–	–	–	0.945
A549-ACE2 [2], 48 h	–	–	–	–	2.48
A549-ACE2 [2], 72 h	–	–	–	–	4.51
Caco-2 [13], 1 nM	–	–	92.7	–	–
Caco-2 [13], 10 nM	–	–	101	–	–
Caco-2 [13], 100 nM	–	–	93.9	–	–
Caco-2 [13], 1000 nM	–	–	90.9	–	–
Caco-2 [13], 10000 nM	–	–	63.5	–	–
Calu-3 [10], 1 nM	–	–	108	–	–
Calu-3 [10], 10 nM	–	–	101	–	–
Calu-3 [10], 100 nM	–	–	92.6	–	–
Calu-3 [10], 1000 nM	–	–	101	–	–
Calu-3 [10], 10000 nM	–	–	1.9	–	–
HepG2 [12], 1 nM	–	–	98.9	–	–
HepG2 [12], 10 nM	–	–	99.5	–	–
HepG2 [12], 100 nM	–	–	103	–	–
HepG2 [12], 1000 nM	–	–	95.1	–	–
HepG2 [12], 10000 nM	–	–	38.6	–	–
U2OS [14], 1 nM	–	–	101	–	–
U2OS [14], 10 nM	–	–	103	–	–
U2OS [14], 100 nM	–	–	103	–	–
U2OS [14], 1000 nM	–	–	98.6	–	–
U2OS [14], 10000 nM	–	–	62	–	–
Vero E6 [11], 1 nM	–	–	106	–	–
Vero E6 [11], 10 nM	–	–	103	–	–
Vero E6 [11], 100 nM	–	–	99.5	–	–
Vero E6 [11], 1000 nM	–	–	95.3	–	–
Vero E6 [11], 10000 nM	–	–	71.1	–	–
[1], 0.1 µM	–	–	–	-0.02	–
[1], 0.3 µM	–	–	–	-0.25	–
[1], 1 µM	–	–	–	0.35	–
[1], 3 µM	–	–	–	0.91	–
[8], 0.1 µM	100	–	–	–	–
[8], 0.3 µM	104	–	–	–	–
[8], 1 µM	79	–	–	–	–
[8], 3 µM	36	–	–	–	–
[9], 0.1 µM	–	99	–	–	–
[9], 0.3 µM	–	96	–	–	–
[9], 1 µM	–	105	–	–	–
[9], 3 µM	–	123	–	–	–

Settings	drug sensitivity score	relative viability EC50 [µM]
Caco-2 [6]	2.9	–
Calu-3 [3]	5.4	–
Calu-3 [15]	–	3.24
HepG2 [5]	4.1	–
HepG2 [16]	–	2.51
U2OS [7]	2	–
Vero E6 [4]	2	–

drug-induced phospholipidosis [%], A549-ACE2 [17]
Settings	0.3 µM	0.833333 µM	3.33333 µM	6.66667 µM	10 µM	30 µM
24 h	3.79	25.8	87.2	113	106	26.8
48 h	4.34	16.1	84.3	113	121	–
72 h	5.16	14.3	68.3	99.9	120	–

CN1[C@@H]2C[C@@H](O)C[C@H]1[C@@H]1O[C@@H]12 [scopine]
cell viability [%]
Settings	Caco-2 [13]	Calu-3 [10]	HepG2 [12]	U2OS [14]	Vero E6 [11]
1 nM	104	102	97.2	98.4	104
10 nM	93	90.1	99.7	93.4	108
100 nM	96.1	98.8	96.7	96.1	106
1000 nM	98.3	103	99.8	96	106
10000 nM	105	103	97	102	98.8

Settings	drug sensitivity score	relative viability EC50 [µM]
Caco-2 [6]	0	–
Caco-2 [19]	–	> 10
Calu-3 [3]	0	–
Calu-3 [15]	–	> 10
HepG2 [5]	0	–
HepG2 [16]	–	> 10
U2OS [7]	0	–
U2OS [20]	–	> 10
Vero E6 [4]	0	–
Vero E6 [18]	–	> 10

COc1cc(C2Oc3cc([C@H]4Oc5cc(O)cc(O)c5C(=O)[C@@H]4O)ccc3OC2CO)ccc1O (stereo partly drawn) [silibinin]
cell viability [%]
Settings	Caco-2 [13]	Calu-3 [10]	HepG2 [12]	U2OS [14]	Vero E6 [11]
1 nM	103	99.9	100	96	99.1
10 nM	102	108	97.8	103	106
100 nM	93	92.6	101	95.8	101
1000 nM	104	98.6	91.1	98.9	103
10000 nM	100	99.3	93.1	93.6	99.2

Settings	drug sensitivity score	relative viability EC50 [µM]
Caco-2 [6]	0	–
Caco-2 [19]	–	> 10
Calu-3 [3]	0	–
Calu-3 [15]	–	> 10
HepG2 [5]	0	–
HepG2 [16]	–	> 10
U2OS [7]	0	–
U2OS [20]	–	> 10
Vero E6 [4]	0	–
Vero E6 [18]	–	> 10

CC(=O)OC[C@H]1O[C@@](COC(C)=O)(O[C@H]2O[C@H](COC(C)=O)[C@@H](OC(C)=O)[C@H](OC(C)=O)[C@H]2OC(C)=O)[C@@H](OC(C)=O)[C@@H]1OC(C)=O [sucrose-octaacetate]
cell viability [%]
Settings	Caco-2 [13]	Calu-3 [10]	HepG2 [12]	U2OS [14]	Vero E6 [11]
1 nM	102	102	93	95.1	98.5
10 nM	99.6	96.3	100	89.6	100
100 nM	97	99	102	97.7	94.1
1000 nM	93	103	103	102	94.6
10000 nM	98.4	108	109	102	110

Settings	drug sensitivity score	relative viability EC50 [µM]
Caco-2 [6]	0	–
Caco-2 [19]	–	> 10
Calu-3 [3]	0	–
Calu-3 [15]	–	> 10
HepG2 [5]	0	–
HepG2 [16]	–	> 10
U2OS [7]	0	–
U2OS [20]	–	> 10
Vero E6 [4]	0	–
Vero E6 [18]	–	> 10

O=C1C(CC[S+]([O-])c2ccccc2)C(=O)N(c2ccccc2)N1c1ccccc1 (stereo not drawn) [sulfinpyrazone]
cell viability [%]
Settings	Caco-2 [13]	Calu-3 [10]	HepG2 [12]	U2OS [14]	Vero E6 [11]
1 nM	102	93.2	109	97.5	106
10 nM	103	98	115	102	103
100 nM	98.5	98.9	110	104	100
1000 nM	99.8	94	97.7	102	97.1
10000 nM	90.5	105	110	102	103

Settings	drug sensitivity score	relative viability EC50 [µM]
Caco-2 [6]	0	–
Caco-2 [19]	–	> 10
Calu-3 [3]	0	–
Calu-3 [15]	–	> 10
HepG2 [5]	0	–
HepG2 [16]	–	> 10
U2OS [7]	0	–
U2OS [20]	–	> 10
Vero E6 [4]	0	–
Vero E6 [18]	–	> 10
